Patent publication US9434687B2, “Detection of synthetic cannabinoids” (priority 2011, dated 2016)
Read-outs that look alike come from different tables or passages of the source.

How the values were obtained:
[1] = tested on: antiserum raised to Immunogen I (Hapten A-BTG); assay: Competitive ELISA microtiter plate assay, antiserum raised to Immunogen I, conjugate Hapten A-HRP (Example 19); format: binding, sheep
Method: Aqueous solutions of the immunogens prepared in examples 5 and 13 were formulated with Freund's Complete Adjuvant (FCA) to form emulsions consisting of 2 mg/ml Immunogen I and 2 mg/ml of Immunogen II in 50% (v/v) FCA. Three sheep were immunised with each emulsion (1° immunisations), 0.25 ml being intramuscularly injected at four sites in the rump of each animal. Subsequent immunisations (boosts 2-8) contained 1 mg/ml Immunogen I and 1 mg/ml Immunogen II. All boosts were emulsified in 50% (v/v) Freund's Incomplete Adjuvant (FIA) and administered to the appropriate sheep in the same manner as the 1° immunisations, at monthly intervals. Blood sampling took place 7-14 days after each boost. Each sample was processed to produce antiserum, which was further purified by caprylic acid and ammonium sulphate precipitation to yield an immunoglobulin (Ig) fraction. The Ig fraction was evaluated by competitive ELISA microtiter plate assay, as described in example 19 below.
(a) The wells of an enhanced binding 96 well polystyrene microtiter plate were coated with the Ig fraction of the antiserum raised to Immunogen I (Hapten A-BTG—example 5) and diluted in 10 mM Tris, pH8.5 (125 μl/well). The appropriate antibody coating concentration was determined using standard ELISA checkerboard techniques. The plate was incubated for 2 hours at 37° C., washed 4 times over a 10-minute period with Tris buffered saline containing Tween 20 (TBST) and tapped dry. Standard solutions of JWH synthetic cannabinoids, metabolites and selected molecules were prepared in TBST and 50 μl of each was added to the appropriate wells. 75 μl of conjugate (Hapten A-HRP) diluted in Tris buffer containing EDTA, D-mannitol, sucrose, thimerosal and BSA, was added to each of the wells. The appropriate dilution of conjugate was also determined using standard ELISA checkerboard techniques. The plate was incubated at 25° C. for 1 hour. The excess unbound conjugate was removed by washing 6 times over a 10-minute period with TBST and tapped dry. 125 μl of tetramethylbenzedine (TMB) substrate solution was added to each well of the plate that was then incubated for 15-20 minutes in the dark at room temperature. The reaction was terminated by addition of 125 μl of 0.2M sulphuric acid to each well. The absorbance was then measured at 450 nm using a microtiter plate reader.
Employing each series of standards, calibration curves were generated and these were used to determine the specificity of the immunoassay for the JWH synthetic cannabinoids, metabolites and selected molecules. The results of this study are presented in Tables 1 to 3, cross-reactivity being calculated according to the following formula: % CR=IC50,JWH-018/IC50,CR×100
Where % CR is the percentage cross-reactivity, IC50, JWH-018 is the concentration of JWH-018 that causes 50% displacement of signal and IC50, CR is the concentration of JWH synthetic cannabinoid/metabolite/selected molecule that causes 50% displacement of signal.
(b) In a similar manner to that described in Example 19(a), the wells of a 96 well microtiter plate were coated with the Ig fraction of the antiserum raised to Immunogen I (Hapten A-BTG). Conjugate (Hapten A-HRP) was employed as a detection reagent.
Table 2: Data generated from a competitive microtiter plate assay for JWH synthetic cannabinoids and metabolites, employing antiserum raised to Immunogen I (Hapten A-BTG) and conjugate (Hapten A-HRP) as detection reagent.
(d) The resulting competitive ELISA for synthetic cannabinoids and metabolites was also employed to test for the 5-fluoropentyl derivative of JWH-018, (1-(5-fluoropentyl)indol-3yl (1-naphthyl) methanone (Table 4).

[2] = tested on: IgG fraction of antiserum raised to Immunogen I; format: binding, sheep
Procedure, shortened: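 Plates were coated with the IgG fraction of sheep antiserum raised to Immunogen I and incubated with standards (JWH-018, 0-40 ng/ml) plus hapten-HRP conjugate for 1 h at 25° C. Detection used TMB, read at 450 nm. IC50 was taken from a 4-parameter fit as the concentration giving half the zero-standard OD.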

[3] = Table 4, Immunogen I, relative to JWH-018
[4] = Antibody to Immunogen I, cross-reactants at 100 ng/ml, 1000 ng/ml, standard JWH-018
[5] = Table 2, CR based on 100% for JWH-018
[6] = Table 2, detecting agent derived from Hapten-A, 40 ng/ml highest concentration tested

SMILES: O=C(c1cccc2ccccc12)c1cn(CCCCCF)c2ccccc12 [AM-2201, 1-(5-Fluoropentyl)indol-3-yl (1-naphthyl) methanone]
- IC50 ([1]; Table 4, Immunogen I): 0.02 ng/mL
- % Cross-reactivity [1, 3]: 11500.00%
- % B/B0 [2, 4]: 3.72%

SMILES: O=C(c1cccc2ccccc12)c1c[nH]c2ccccc12 [N-desalkyl JWH-018, 3-(1-naphthoyl)-1H-Indole]
- % Cross-reactivity [1, 5]: 70.57%
- IC50 [1, 6]: 3.84 ng/mL
- % B/B0 [2, 4]: 15.63%

SMILES: O=C(c1cccc2ccccc12)c1cn(CCN2CCOCC2)c2ccccc12 [JWH-200]
- % Cross-reactivity [1, 5]: 874.19%
- IC50 [1, 6]: 0.31 ng/mL
- % B/B0 [2, 4]: 3.51%

SMILES: CCCCCn1cc(C(=O)c2cccc3ccccc23)c2c(O)cccc21 [4-OH JWH-018, JWH-018 4-hydroxyindole metabolite]
- % Cross-reactivity [1, 5]: 10.62%
- IC50 [1, 6]: 25.51 ng/mL
- % B/B0 [2, 4]: 46.39%

SMILES: CCCCCn1cc(C(=O)c2cccc3ccccc23)c2ccccc21 [JWH-018]
- binding to the antibody produced from Immunogen I (in words) [1]: able to bind
- % Cross-reactivity [1, 5]: 100.00%
- IC50 [1, 6]: 2.71 ng/mL
- IC50 ([1]; Table 4, Immunogen I): 2.30 ng/mL
- % Cross-reactivity [1, 3]: 100.00%
- % B/B0 [2, 4]: 5.19%
- % B/B0 ([2]; JWH-018 0.625 ng/ml): 77%
- % B/B0 ([2]; JWH-018 1.25 ng/ml): 62%
- % B/B0 ([2]; JWH-018 2.5 ng/ml): 44%
- % B/B0 ([2]; JWH-018 5 ng/ml): 31%
- % B/B0 ([2]; JWH-018 10 ng/ml): 20%
- % B/B0 ([2]; JWH-018 20 ng/ml): 14%
- % B/B0 ([2]; JWH-018 40 ng/ml): 9%
- IC50 ([2]; Table 7 standard curve, standard concentration which produces 50% B/B0): 2.016 ng/mL

SMILES: CCCCCn1cc(C(=O)c2cccc3ccccc23)c2ccc(O)cc21 [6-OH JWH-018, JWH-018 6-hydroxyindole metabolite]
- binding to the antibody produced from Immunogen I (in words) [1]: able to bind
- % Cross-reactivity [1, 5]: 132.84%
- IC50 [1, 6]: 2.04 ng/mL
- % B/B0 [2, 4]: 8.07%

SMILES: CCCCCn1cc(C(=O)c2cccc3ccccc23)c2cc(O)ccc21 [5-OH JWH-018, JWH-018 5-hydroxyindole metabolite]
- binding to the antibody produced from Immunogen I (in words) [1]: able to bind
- % Cross-reactivity [1, 5]: 694.87%
- IC50 [1, 6]: 0.39 ng/mL
- % B/B0 [2, 4]: 11.79%

SMILES: CCCCCn1cc(C(=O)c2ccc(Cl)c3ccccc23)c2ccccc21 [JWH-398]
- % Cross-reactivity [1, 5]: <<6.78%
- IC50 [1, 6]: >>40 ng/ml
- % B/B0 [2, 4]: 60.31%

SMILES: O=C(c1cccc2ccccc12)c1cn(CCCCCO)c2ccccc12 [JWH-018 N-(5-hydroxypentyl) metabolite]
- % Cross-reactivity [1, 5]: 1505.56%
- IC50 [1, 6]: 0.18 ng/mL
- % B/B0 [2, 4]: 3.50%

SMILES: O=C(O)CCCCn1cc(C(=O)c2cccc3ccccc23)c2ccccc21 [JWH-018 N-pentanoic acid metabolite]
- % Cross-reactivity [1, 5]: 645.24%
- IC50 [1, 6]: 0.42 ng/mL
- % B/B0 [2, 4]: 4.51%

SMILES: CCCCn1cc(C(=O)c2cccc3ccccc23)c2ccccc21 [JWH-073]
- % Cross-reactivity [1, 5]: 291.40%
- IC50 [1, 6]: 0.93 ng/mL
- % B/B0 [2, 4]: 3.56%
